Columns and labels:
Test in all cases: NCI-60 one-dose screening
Type in all cases: cell-based
786-0 = conditions: Homo sapiens, 786-0, Renal Cancer, read-out: GI (%)
A549/ATCC = conditions: Homo sapiens, Non-Small Cell Lung Cancer, read-out: GI (%)
ACHN = conditions: Homo sapiens, Renal Cancer, read-out: GI (%)
COLO 205 = conditions: Homo sapiens, COLO 205, Colon Cancer, read-out: GI (%)
HCC-2998 = conditions: Homo sapiens, HCC-2998, Colon Cancer, read-out: GI (%)
HL-60(TB) = conditions: Homo sapiens, Leukemias, read-out: GI (%)
HOP-62 = conditions: Homo sapiens, HOP-62, Non-Small Cell Lung Cancer, read-out: GI (%)
K-562 = conditions: Homo sapiens, K562, K-562, Leukemias, read-out: GI (%)
LOX IMVI = conditions: Homo sapiens, Melanoma, read-out: GI (%)
MCF7 = conditions: Homo sapiens, MCF7, 10 μM; MCF7, Breast Cancer; read-out: GI (%)
MDA-MB-231/ATCC = conditions: Homo sapiens, Breast Cancer, read-out: GI (%)
MDA-MB-468 = conditions: Homo sapiens, MDA-MB-468, Breast Cancer, read-out: GI (%)
MOLT-4 = conditions: Homo sapiens, MOLT-4, Leukemias, read-out: GI (%)
OVCAR-3 = conditions: Homo sapiens, OVCAR-3, 10 μM; OVCAR-3, Ovarian Cancer; read-out: GI (%)
OVCAR-8 = conditions: Homo sapiens, OVCAR-8, Ovarian Cancer, read-out: GI (%)
SF-295 = conditions: Homo sapiens, SF-295, CNS Cancer, read-out: GI (%)
SK-MEL-2 = conditions: Homo sapiens, SK-MEL-2, Melanoma, read-out: GI (%)
SNB-19 = conditions: Homo sapiens, SNB-19, CNS Cancer, read-out: GI (%)
SNB-75 = conditions: Homo sapiens, SNB-75, CNS Cancer, read-out: GI (%)
T-47D = conditions: Homo sapiens, T47D, Breast Cancer, read-out: GI (%)
TK-10 = conditions: Homo sapiens, TK-10, Renal Cancer, read-out: GI (%)
U251 = conditions: Homo sapiens, U-251, U251, CNS Cancer, read-out: GI (%)

SMILES	inhibition at 10 µM (786-0) [%]	inhibition at 10 µM (A549/ATCC) [%]	inhibition at 10 µM (ACHN) [%]	inhibition at 10 µM (COLO 205) [%]	inhibition at 10 µM (HCC-2998) [%]	inhibition at 10 µM (HL-60(TB)) [%]	inhibition at 10 µM (HOP-62) [%]	inhibition at 10 µM (K-562) [%]	inhibition at 10 µM (LOX IMVI) [%]	inhibition at 10 µM (MCF7) [%]	inhibition at 10 µM (MDA-MB-231/ATCC) [%]	inhibition at 10 µM (MDA-MB-468) [%]	inhibition at 10 µM (MOLT-4) [%]	inhibition at 10 µM (OVCAR-3) [%]	inhibition at 10 µM (OVCAR-8) [%]	inhibition at 10 µM (SF-295) [%]	inhibition at 10 µM (SK-MEL-2) [%]	inhibition at 10 µM (SNB-19) [%]	inhibition at 10 µM (SNB-75) [%]	inhibition at 10 µM (T-47D) [%]	further results
COc1ccc(COc2ccc(/C=C3/C(=O)Nc4ccccc43)cc2OC)cc1 [6d]	-4.67	-9.19	7.61	-22.9	-2.21	-14.7	-0.03	-0.85	3.43	6	0.09	-0.39	-1.85	-14.7	-0.59	-3.32	-8.22	2.66	2.65	-12.8	inhibition at 10 µM (TK-10): -13.4%; inhibition at 10 µM (U251): -9.05%
COc1cc(/C=C2/C(=O)Nc3cc(Cl)ccc32)ccc1OCc1ccccc1 [6k]	-8.46	-8.61	7.71	-16.6	0.85	-20.2	0.16	3.86	16.1	31	8.09	7.61	4.75	-3.45	0.19	-1.02	-5.05	1.7	3.2	-0.39	inhibition at 10 µM (TK-10): -55.6%; inhibition at 10 µM (U251): -7.73%
COc1cc(/C=C2/C(=O)Nc3cc(Cl)ccc32)ccc1OCc1ccc(F)cc1 [6m]	-7.88	-9.5	6.43	-10.2	3.17	-20.4	4.08	2.33	6.49	42.9	7.87	7.02	-0.43	-1.69	1.34	2.87	0.15	-3.75	-4.47	5.94	inhibition at 10 µM (TK-10): -85.2%; inhibition at 10 µM (U251): -10.6%
COc1ccc(COc2ccc(/C=C3/C(=O)Nc4cc(Cl)ccc43)cc2OC)cc1 [6n]	-6.9	-12.9	5.82	-11.1	-22.2	-13.9	4.49	-2.8	-2.89	24	5.7	7.72	0.87	-5.39	1.31	-2.14	-0.29	1.46	-12.8	12.8	inhibition at 10 µM (TK-10): -64.4%; inhibition at 10 µM (U251): -6.11%
COc1cc(/C=C2/C(=O)Nc3cc(Cl)ccc32)ccc1OCc1ccccn1 [6o]	-11.2	-15.6	5.07	-18.8	-11.7	-17.3	3.58	8.79	2.38	27.7	13.4	-3.25	3.45	-15.5	-2.7	-1.12	-8.06	-1.66	-0.58	0.18	inhibition at 10 µM (TK-10): -69.3%; inhibition at 10 µM (U251): -7.72%

— article PMC9948168, “Vanillin-Based Indolin-2-one Derivative Bearing a Pyridyl Moiety as a Promising Anti-Breast Cancer Agent via Anti-Estrogenic Activity” (ACS Omega, 2023)
